Holding throughout (type): cell-based
In test [1] the target is human S1P1 (Homo sapiens (Human), UniProt P21453). The test can be described thus: In vitro functional activity (agonism) on human S1P1 receptors (method A), CHO-K1-human-S1P1-Aequorin assay. The text has this: In Vitro Functional Activity (Agonism) on Human S1P1 Receptors (Method A)
(§1) Human-S1P1-Aequorin cells express mitochondrial targeted apo-Aequorin. Cells have to be loaded with coelanterazine, in order to reconstitute active Aequorin. After binding of agonists to the human S1P1 receptor the intracellular calcium concentration increases and binding of calcium to the apo-Aequorin/coelenterazine complex leads to an oxidation reaction of coelenterazine, which results in the production of apo-Aequorin, coelenteramide, CO2 and light ([…]max 469 nm). This luminescent response is dependent on the agonist concentration. Luminescence is measured using the MicroBeta Jet (Perkin Elmer). Agonistic effects of compounds are expressed as pEC50. Compounds were tested at a 10 points half log concentration range, and 2 independent experiments were performed in single point's measurements.

The target of test [2] is human S1P5 receptor (Homo sapiens (Human), UniProt Q9H228). The test is described as follows: In vitro functional activity (agonism) on human S1P5 receptors, CHO-human-S1P5-Aequorin assay. As to conditions: aequorin luminescence, CHO cells, 3 independent experiments.
Source text: In Vitro Functional Activity (Agonism) on Human S1P5 Receptors
as §1, with “The CHO-human-S1P5-Aeqorin assay was bought from Euroscreen, Brussels (Euroscreen, Technical dossier, Human Lysophospholid S1P5 (Edg8) receptor, DNA clone and CHO AequoScreen™ recombinant cell-line, catalog no: ES-593-A, September 2006). Human-S1P5-Aequorin cells” for “Human-S1P1-Aequorin cells”, “human S1P5” for “human S1P1”, “and 3” for “and 2”

Test [3] addresses human S1P3 receptor (Homo sapiens (Human), UniProt Q99500). The test can be described thus: In vitro functional activity (agonism) on human S1P3 receptors, CHO-human-S1P3-Aequorin assay. Conditions: aequorin luminescence, CHO K1 cells, 3 independent experiments, read-out: S1P3 pEC50 (converted).
Source text: In Vitro Functional Activity (Agonism) on Human S1P3 Receptors
The CHO-human-S1P3-Aeqorin assay (CHO/Gα16/AEQ/h-S1P3) was established at Solvay Pharmaceuticals. The plasmid DNA coding for the S1P3 receptor (accession number in GenBank NM_005226 was purchased from UMR cDNA resource Centre (Rolla, Mo.). The pcDNA3.1/hS1P3 construct carrying the mitochondrially targeted apo-Aeqorin and Gal6 protein was transfected in CHO K1 cell-line.
as §1, with “Human-S1P3-Aequorin cells” for “Human-S1P1-Aequorin cells”, “human S1P3” for “human S1P1”, “and 3” for “and 2”

Setting [4] is: agonism, determined using method A (aequorin luminescence, CHO-K1 cells), 2 independent experiments, read-out: S1P1^A pEC50 (converted).

Structures can show the parent of a compound that is named as a salt. Where two headings read alike, the source gives them in different places.

human S1P3 receptor, sequence (Q99500 whole entry): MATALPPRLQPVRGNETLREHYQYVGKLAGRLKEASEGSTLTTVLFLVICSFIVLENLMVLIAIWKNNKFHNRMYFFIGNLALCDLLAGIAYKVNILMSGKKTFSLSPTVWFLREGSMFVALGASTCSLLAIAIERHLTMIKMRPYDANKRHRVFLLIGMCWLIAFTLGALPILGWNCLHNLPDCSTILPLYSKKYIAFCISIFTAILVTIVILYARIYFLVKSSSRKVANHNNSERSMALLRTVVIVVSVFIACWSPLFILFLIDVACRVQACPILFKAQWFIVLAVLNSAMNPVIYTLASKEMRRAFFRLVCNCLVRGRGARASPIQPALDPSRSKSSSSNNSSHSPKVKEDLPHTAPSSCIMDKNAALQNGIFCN
human S1P5 receptor, sequence (Q9H228 whole entry): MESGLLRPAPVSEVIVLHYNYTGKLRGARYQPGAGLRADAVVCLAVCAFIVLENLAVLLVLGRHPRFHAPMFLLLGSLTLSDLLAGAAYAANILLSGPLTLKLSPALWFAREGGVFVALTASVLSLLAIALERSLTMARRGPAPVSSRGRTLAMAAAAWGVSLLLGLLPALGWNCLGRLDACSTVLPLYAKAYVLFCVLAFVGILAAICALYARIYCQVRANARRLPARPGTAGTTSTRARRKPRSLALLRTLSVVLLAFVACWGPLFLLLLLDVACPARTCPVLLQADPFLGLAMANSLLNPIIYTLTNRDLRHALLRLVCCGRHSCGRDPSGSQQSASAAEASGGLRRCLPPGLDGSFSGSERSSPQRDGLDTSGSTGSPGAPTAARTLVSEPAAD
human S1P1, sequence (P21453 whole entry): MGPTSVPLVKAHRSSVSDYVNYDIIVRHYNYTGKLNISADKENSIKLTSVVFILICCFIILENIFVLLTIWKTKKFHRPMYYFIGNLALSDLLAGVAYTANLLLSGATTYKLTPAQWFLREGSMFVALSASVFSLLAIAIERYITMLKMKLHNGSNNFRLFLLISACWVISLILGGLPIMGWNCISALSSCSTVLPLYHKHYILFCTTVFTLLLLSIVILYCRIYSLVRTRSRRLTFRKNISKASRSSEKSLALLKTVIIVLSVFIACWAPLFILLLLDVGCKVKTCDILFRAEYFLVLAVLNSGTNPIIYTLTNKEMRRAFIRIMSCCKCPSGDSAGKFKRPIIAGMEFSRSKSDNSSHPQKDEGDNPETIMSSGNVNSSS

As to `O=C(O)CCN1CCC2(CC1)COc1cc(OCc3c(Cl)cccc3Cl)ccc12` [Compound 29, 3-{6-[(2,6-Dichlorophenyl)methoxy]-2H-spiro[1-benzofuran-3,4′-piperidine]-1′-yl}propanoic acid hydrochloride], the EC50 in test [1] was > 10 µM; in test [3], > 31.6 µM. In addition, the “S1P5 pEC50” value in test [2] came out at 7.

Turning to `O=C(O)CCN1CCC2(CC1)COc1cc(OCc3c(Cl)cccc3C3CC3)ccc12` [Compound 75, 3-{6-[(2-Chloro-6-cyclopropyl)phenyl)methoxy]-2H-spiro[1-benzofuran-3,4′-piperidine]-1′-yl}propanoic acid hydrochloride], the EC50 in test [1] (setting [4]) was 2.51 µM; in test [3] it was > 10 µM. The “S1P5 pEC50” value in test [2] was 7.7.

In the case of `O=C(O)CCN1CCC2(CC1)COc1cc(OCc3c(Cl)cccc3OC(F)(F)F)ccc12` [Compound 77, 3-(6-{[2-Chloro-6-(trifluoromethoxy)phenyl]methoxy}-2H-spiro[1-benzofuran-3,4′-piperidine]-1′-yl)propanoic acid hydrochloride], the EC50 in test [1] (setting [4]) was 6.31 µM; in test [3], > 10 µM. Moreover, the “S1P5 pEC50” value in test [2] is listed as 7.6.

`CC(CN1CCC2(CC1)COc1cc(OCc3c(Cl)cc(Cl)cc3Cl)ccc12)C(=O)O` (centres unmarked) [Compound 102, 2-Methyl-3-{6-[(2,4,6-trichlorophenyl)methoxy]-2H-spiro[1-benzofuran-3,4′-piperidine]-1′-yl}propanoic acid hydrochloride]: the EC50 in test [1] (setting [4]) was 0.631 µM. Further, the “S1P5 pEC50” value in test [2] was 7.8.

Regarding `O=C(O)CN1CCC2(CC1)COc1cc(OCc3c(Cl)cc(Cl)cc3Cl)ccc12` [Compound 110, 2-{6-[(2,4,6-Trichlorophenyl)methoxy]-2H-spiro[1-benzofuran-3,4′-piperidine]-1′-yl}acetic acid hydrochloride], the EC50 in test [1] (setting [4]) is > 10 µM; in test [3], 2 µM. Further, the “S1P5 pEC50” value in test [2] is given as 7.8.

Regarding `CCc1cccc(Cl)c1COc1ccc2c(c1)OCC21CCN(CC(=O)O)CC1` [Compound 111, 2-{6-[(2-Chloro-6-ethylphenyl)methoxy]-2H-spiro[1-benzofuran-3,4′-piperidine]-1′-yl}acetic acid hydrochloride], the EC50 is > 10 µM in test [1] (setting [4]) and 2 µM in test [3]. In test [2], the “S1P5 pEC50” value was determined as 7.6.

In the case of `O=C(O)CCCN1CCC2(CC1)COc1cc(OCc3c(Cl)cccc3C3CC3)ccc12` [Compound 121, 4-{6-[(2-Chloro-6-cyclopropylphenyl)methoxy]-2H-spiro[1-benzofuran-3,4′-piperidine]-1′-yl}butanoic acid hydrochloride], the values for the EC50 in test [1] (setting [4]) and in test [3] were 5.01 µM and > 10 µM, respectively. In addition, the “S1P5 pEC50” value in test [2] was determined as 7.1.

Turning to `CC(C)c1cccc(Cl)c1COc1ccc2c(c1)OCC21CCN(CCCC(=O)O)CC1` [Compound 127, 4-(6-{[2-Chloro-6-(propan-2-yl)phenyl]methoxy}-2H-spiro[1-benzofuran-3,4′-piperidine]-1′-yl)butanoic acid hydrochloride], the EC50 was 7.94 µM in test [1] (setting [4]) and 2.51 µM in test [3]. Moreover, the “S1P5 pEC50” value in test [2] was found to be 6.9.

For `O=C(O)CCN1CCC2(CC1)COc1c2ccc(OCc2c(Cl)cc(Cl)cc2Cl)c1F` [Compound 132, 3-{7-Fluoro-6-[(2,4,6-trichlorophenyl)methoxy]-2H-spiro[1-benzofuran-3,4′-piperidine]-1′-yl}propanoic acid hydrochloride], the EC50 in test [1] (setting [4]) was > 31.6 µM; in test [3], 2 µM. In test [2], the “S1P5 pEC50” value was 8.3.

Turning to `CCc1cccc(Cl)c1COc1ccc2c(c1F)OCC21CCN(CCC(=O)O)CC1` [Compound 136, 3-{6-[(2-Chloro-6-ethylphenyl)methoxy]-7-fluoro-2H-spiro[1-benzofuran-3,4′-piperidine]-1′-yl}propanoic acid hydrochloride], the EC50 was 1.26 µM in test [1] (setting [4]) and > 10 µM in test [3]. The “S1P5 pEC50” value in test [2] is 8.

As to `CCc1cccc(Cl)c1CSc1ccc2c(c1)OCC21CCN(CCC(=O)O)CC1` [Compound 140, 3-(6-{[(2-Chloro-6-ethylphenyl)methyl]sulfanyl}-2H-spiro[1-benzofuran-3,4′-piperidine]-1′-yl}propanoic acid hydrochloride], the EC50 in test [1] was 0.158 µM; in test [3] it was > 10 µM. Also, the “S1P5 pEC50” value in test [2] amounted to 8.5.

`O=C(O)CCN1CCC2(CC1)COc1cc(SCc3c(Cl)cccc3C3CC3)ccc12` [Compound 141, 3-(6-{[(2-Chloro-6-cyclopropylphenyl)methyl]sulfanyl}-2H-spiro[1-benzofuran-3,4′-piperidine]-1′-yl}propanoic acid hydrochloride]: the EC50 in test [1] (setting [4]) is 0.316 µM; in test [3] it was > 10 µM. In addition, the “S1P5 pEC50” value in test [2] is listed as 8.2.

Take `O=C(O)CCN1CCC2(CC1)COc1cc(SCc3c(Cl)cc(Cl)cc3Cl)ccc12` [Compound 143, 3-(6-{[(2,4,6-Trichlorophenyl)methyl]sulfanyl}-2H-spiro[1-benzofuran-3,4′-piperidine]-1′-yl}propanoic acid hydrochloride]: the EC50 in test [1] (setting [4]) is > 10 µM. In test [2], the “S1P5 pEC50” value is given as 7.5.

Regarding `CC(CN1CCC2(CC1)COc1cc(SCc3c(Cl)cccc3Cl)ccc12)C(=O)O` (centres unmarked) [Compound 153, 3-(6-{[(2,6-Dichlorophenyl)methyl]sulfanyl}-2H-spiro[1-benzofuran-3,4′-piperidine]-1′-yl}-2-methylpropanoic acid hydrochloride], in test [1] (setting [4]), the EC50 was 1 µM. The “S1P5 pEC50” value in test [2] is 7.9.

Consider `O=C(O)CN1CCC2(CC1)COc1cc(C3CC3c3c(Cl)cccc3Cl)ccc12` (centres unmarked) [Compound 176, 2-{6-[2-(2,6-Dichlorophenyl)cyclopropyl]-2H-spiro[1-benzo-furan-3,4′-piperidine]-1′-yl}acetic acid hydrochloride], for which the EC50 in test [1] (setting [4]) was > 31.6 µM; in test [3] it was > 10 µM. Also, the “S1P5 pEC50” value in test [2] is on record as 7.6.

With `O=C(O)CCN1CCC2(CC1)OCc1cc(OCc3c(Cl)cccc3Cl)ccc12` [Compound 203, 3-{5-[(2,6-Dichlorophenyl)methoxy]-3-H-spiro[2-benzofuran-1,4′-piperidine]-1′-yl}propanoic acid hydrochloride], the EC50 in test [1] (setting [4]) and in test [3] was > 10 µM in each case. Further, the “S1P5 pEC50” value in test [2] is listed as 6.7.

For the compound `CC(C)c1cccc(F)c1COc1ccc2c(c1)OCC21CCN(CCC(=O)O)CC1` [Compound 252, 3-(6-{[2-fluoro-6-(propan-2-yl)phenyl]methoxy}-2H-spiro[1-benzofuran-3,4′-piperidine]-1′-yl)propanoic acid], in test [3], the EC50 is 5.01 µM.

As for `CCc1cccc(Cl)c1CSc1ccc2c(c1F)OCC21CCN(CCC(=O)O)CC1` [Compound 296, hydrochloride], the “S1P5 pEC50” value in test [2] was 8.7. In test [3], the EC50 was > 10 µM.

For `O=C(O)CCN1CCCC2(COc3cc(OCc4c(Cl)cccc4C(F)(F)F)ccc32)C1` (centres unmarked) [Compound 326, 3-(6-{[2-Chloro-6-(trifluoromethyl)phenyl]methoxy}-2H-spiro[1-benzofuran-3,3′-piperidine]-1′-yl)propanoic acid], the figures for the EC50 in test [1] (setting [4]) and in test [3] were > 31.6 µM and > 10 µM, respectively.

These data come from patent US10179791B2, “Spiro-cyclic amine derivatives as S1P modulators” (AbbVie B.V., priority 2010, dated 2019).
